One experiment deals with T1, rM3Ds (Rattus norvegicus, UniProt P08483, A177S/A238G/A489L/DEL261-437/DEL441-478/E258S/I253V/I483M/INS256[…]/K178L/K182A/K255R/K484R/K486H/L173F/L482A/M480V/R171S/R176Q/R179M/S481M/T174R/T181R/T257A/Y148C).
T1 construct: rM3Ds; 2A-EYFP (C); host or cells: AAV8R12-transduced striatal D1-MSNs of mice and cynomolgus macaques (in vivo and acute slices)
The experiment in a line: Slice whole-cell recordings of rM3Ds-transduced MSNs. In kind it is cell-based, mice. To be noted: AAV8R12-G88P7-rM3Ds-2A-EYFP. From the text: Mice from different groups were anesthetized with […] isoflurane, and then decapitated. The brain was quickly extracted and placed in ice-cold N-methyl-D-glucamine (NMDG) cutting solution containing (in mM): 92 NMDG, 2.5 KCl, 25 NaHCO3, 1.25 NaH2PO4, 4.5 D-Glucose, 20 HEPES, 5 L-ascorbic acid, 3 Na-pyruvate, 2 Thiourea, 10 MgSO4, 0.5 CaCl2). The pH was adjusted to 7.2±0.1 using HCl and the osmolarity was adjusted to 305±5 mosmol/L using NMDG. The solution was bubbled with 95% O2/5% CO2 prior to use. Coronal striatum slices were cut in 250-[…]m thickness with a vibratome slicer (Leica, VT1200 S), and then incubated in artificial cerebrospinal fluid (aCSF) saturated with 95% O2/5% CO2 for at least 45 min at 37° C. before recording. The aCSF contains (in mM) 125 NaCl, 1.25 KCl, 25 NaHCO3, 1.25 KH2PO4, 25 D-Glucose, 2 CaCl2) and 1 MgCl2, supplemented with 2 mM Na-pyruvate, 3 mM Myo-inositol and 0.4 mM L-ascorbic acid.
The acute striatum slice was transferred to the recording chamber with a constant perfusion of oxygenized aCSF at the rate of 3 ml/min. Neurons were visualized using an upright microscope (Olympus, BX-51) with a 40×water immersion objective at room temperature (˜25° C.). […] Neurons were quickly visualized under fluorescence microscope and then patch clamp were achieved under infrared light illumination and CCD camera. […]

The nature of experiment [1]: Locomotion test in naive macaques without viral injection. The experiment is classed as in vivo. To be noted: naive macaques, n=3, not significant.
Another experiment addresses hM3Dq (Homo sapiens, UniProt P20309, A239G/Y149C). The experiment in a line: Rotation behavior and nigral c-Fos in mice after unilateral nigral AAV8R12-G88P3-HA-hM3Dq and CNO. The experiment is classed as in vivo, C57BL/6J mice. The arrangement: host or cells: AAV8R12-transduced neurons (striatal D1-MSNs, some SNr neurons) of mice and macaques. Conditions: for rotation behavior (FIG. 6C): control vector AAV8R12-G88P3-EYFP, n=5. How it is done:
Mice were anesthetized with sodium pentobarbital (Nembutal; 80 mg/kg, i.p.), and then placed into a stereotaxic device (KOPF). Eye cream was applied on both corneas to avoid dehydration. The skull above the targeted areas was thinned with a dental drill and carefully removed. Injections were conducted with a 10 μL syringe connected to a 33-Gauge needle (Neuros; Hamilton), using a microsyringe pump (Legato 130, KD Scientific). A total volume of 200 nL virus was injected into the SNr at a speed of 20 nL/min. The coordinates for the SNr were 3.4 mm posterior, 1.3 mm lateral, 4.8 mm ventral to the bregma.
Mice that were used in the behavioral experiments were then implanted with guide cannulas (KOPF) unilaterally aiming at the dorsomedial striatum (0.5 mm anterior, 1.5 mm lateral, 3.5 mm ventral to the bregma). The cannulas were fixed to the skull with dental cement. Stainless steel obturators were inserted into the guide cannulas and were replaced every other day to maintain the patency until infusions were made. Mice were allowed to recover from the surgery for at least 3 weeks before further studies.
Mice were individually handled for 10-20 seconds per day for at least 5 days to habituate them to the experimenter. The open field test was conducted in a test apparatus (50 cm×50 cm×50 cm) with an HD digital camera (Sony) positioned above the arena. On day one, mice were habituated to the apparatus for 10 minutes. On day 2, mice were administrated saline (0.1 mL i.p. or 200 nL intracranially [i.e.] through the guide cannulas). On day 3, mice were administrated with Clozapine-N-oxide (CNO, Hello Bio, HB1807; 0.3 mg/kg i.p. or 200 nL at 100 μM i.e.). All behavioral tests were conducted 30 minutes after injection. During the test, mice were allowed to freely explore the apparatus for 10 minutes. The behavioral data were analyzed with ANY-maze software (Stoelting Co.).

hM3Dq, sequence (P20309 whole entry Y149C/A239G): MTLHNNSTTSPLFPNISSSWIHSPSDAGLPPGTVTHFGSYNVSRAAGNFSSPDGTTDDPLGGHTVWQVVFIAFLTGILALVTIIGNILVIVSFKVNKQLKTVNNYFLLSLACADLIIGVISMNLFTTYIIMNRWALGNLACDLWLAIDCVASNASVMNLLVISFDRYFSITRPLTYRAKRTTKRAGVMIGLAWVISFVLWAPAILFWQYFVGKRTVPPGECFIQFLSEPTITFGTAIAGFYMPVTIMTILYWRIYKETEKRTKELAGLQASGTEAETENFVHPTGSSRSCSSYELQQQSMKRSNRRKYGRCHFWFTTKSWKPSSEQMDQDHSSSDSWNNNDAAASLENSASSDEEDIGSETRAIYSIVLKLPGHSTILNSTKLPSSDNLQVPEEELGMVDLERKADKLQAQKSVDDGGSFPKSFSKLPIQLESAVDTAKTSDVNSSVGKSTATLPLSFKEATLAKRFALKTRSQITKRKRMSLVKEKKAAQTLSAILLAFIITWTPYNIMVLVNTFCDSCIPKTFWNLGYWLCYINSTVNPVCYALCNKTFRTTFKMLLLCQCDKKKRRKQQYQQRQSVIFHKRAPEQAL
T1 sequence (P08483 other isoform, or with tags, fused parts or gaps with the stated changes): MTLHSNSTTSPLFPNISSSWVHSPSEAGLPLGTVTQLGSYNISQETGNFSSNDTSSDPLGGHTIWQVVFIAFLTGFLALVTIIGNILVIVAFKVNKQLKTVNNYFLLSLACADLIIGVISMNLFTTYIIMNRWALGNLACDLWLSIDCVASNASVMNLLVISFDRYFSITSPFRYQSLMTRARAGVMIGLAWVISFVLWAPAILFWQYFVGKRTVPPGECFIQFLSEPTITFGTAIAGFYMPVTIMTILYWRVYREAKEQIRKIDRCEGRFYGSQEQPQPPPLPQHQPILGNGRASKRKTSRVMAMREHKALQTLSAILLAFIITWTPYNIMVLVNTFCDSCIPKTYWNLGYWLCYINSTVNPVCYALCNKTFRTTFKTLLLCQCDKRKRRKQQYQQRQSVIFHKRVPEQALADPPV

Take `C[N+]1([O-])CCN(C2=Nc3cc(Cl)ccc3Nc3ccccc32)CC1` [CNO, clozapine N-oxide]: at rM3Ds (6-OHDA mice, not with AAV8R12-G88P7-EYFP), the “excitability of D1-MSNs in parkinsonian mice” value is given as “increased excitability”. On rM3Ds (CNO 10 μM, no effect on basal firing rate or resting membrane potential), the “excitability of labeled striatal MSNs” value was “enhancement in the excitability”. In addition, the “contraversive and ipsiversive rotation (FIG. 11C)” value in experiment [1] (saline 0.767±0.4296) was 0.8384±0.4152. Also, the “speed of contraversive rotations (FIG. 11G)” value in experiment [1] (saline 39.07±5.889) is on record as 39.63±7.092. Also, the “speed of ipsiversive rotations (FIG. 11H)” value in experiment [1] (saline 41.49±3.96) was found to be 42.79±4.705. Moreover, in experiment [1] (saline 53.12±15.3), the “total distance (FIG. 11F)” value is given as 59.48±18.65. In experiment [1] (saline 55.73±2.64), the “time spending in the higher portion of the observing cages (FIG. 11D)” value came to 60.43±4.542. Moreover, the “immobile time (FIG. 11E)” value in experiment [1] (saline 149.9±21.61) was found to be 149.8±22.65. On hM3Dq (CNO i.p., AAV8R12-G88P3-HA-hM3Dq, n=8 mice, mean±SEM, saline 45.25±4.128), the “rotations (FIG. 6A; ipsiversive rotations induced)” value was 87.84±4.666. Moreover, the “rotation behavior (FIG. 6C)” value at hM3Dq (CNO i.p., saline 47.08±10.5) worked out at 44.72±10.89; at hM3Dq (CNO intracranial, saline 54.22±8.766), 61.39±5.774. Also, the “rotations (FIG. 6A; contraversive rotations induced)” value on hM3Dq (CNO intracranial into dorsomedial striatum, AAV8R12-G88P3-HA-hM3Dq, n=8, saline 49.63±5.879) amounted to 15.08±3.435. Further, the “nigral c-Fos+ cells” value at hM3Dq (CNO intracranial, hM3Dq) is “No significant changes in the number of nigral c-Fos+ cells”. Further, the “c-Fos+ cells in the right SNr” value at hM3Dq (CNO intraperitoneal, hM3Dq) is “significant increase in c-Fos+ cells”.

Values taken from patent US20250381307A1, “RETRO-AAV AND USE IN TREATING NEURODEGENERATIVE DISEASES” (priority 2023, published 2025).
